Holding throughout (type): in vivo
For assay [1], the system named is Spodoptera littoralis. The experiment in a line: Spodoptera littoralis persistence test on sprayed cotton plants (increased safety profile / bio-degradability). As to conditions: for Control after 10 days/%: leaves excised 10 days after treatment; for pest or weed control at 12.5 ppm: Spodoptera littoralis. As to the method:
Biological Examples Showing Increased Safety Profile:
Spodoptera littoralis (Egyptian Cotton Leafworm)
Cotton plants in the 5th leaf stage (around 5 weeks old) are treated in an automated turn table spray chamber. Plants are stored in the greenhouse length during the whole test period.
2, 16 and optionally 10 days after treatment 4 leaves from each sample are excised, placed into 14 cm plastic petri dishes on wet filter paper. The infestation of 10 L3-Spodoptera littoralis is made immediately afterwards. After an incubation period of 6 days the samples are checked for mortality.
In the following series of experiments the compounds of the invention are compared with the corresponding isoxazoline analogues from the prior art on Spodoptera littoralis (Egyptian cotton leafworm) performed as described in the method above.

The next assay deals with Diabrotica balteata. The experiment in a line: Diabrotica balteata (corn root worm) artificial diet test. The following applies: 120 h, 200 ppm (concentration in well 18 ppm), L2 larvae, larval mortality and growth regulation after 5 days. As to the method:
Diabrotica balteata (Corn Root Worm): A 24-well microtiter plate (MTP) with artificial diet was treated with test solutions at an application rate of 200 ppm (concentration in well 18 ppm) by pipetting. After drying, the MTPs were infested with L2 larvae (6-10 per well). After an incubation period of 5 days, samples were checked for larval mortality and growth regulation.

In the next assay the test system is Heliothis virescens. Kind of assay: Heliothis virescens (tobacco budworm) egg test on artificial diet. As to conditions: 96 h, 200 ppm (concentration in well 18 ppm), eggs on artificial diet, egg mortality, larval mortality, growth regulation after 4 days. As to the method:
Heliothis virescens (Tobacco Budworm): Eggs (0-24 h old) were placed in 24-well microtiter plate on artificial diet and treated with test solutions at an application rate of 200 ppm (concentration in well 18 ppm) by pipetting. After an incubation period of 4 days, samples were checked for egg mortality, larval mortality, and growth regulation.

The subject of another assay is Plutella xylostella. Kind of assay: Plutella xylostella (diamond back moth) artificial diet test. As to conditions: 144 h, 200 ppm (concentration in well 18 ppm), L2 larvae, larval mortality and growth regulation after 6 days. As to the method: Plutella xylostella (Diamond Back Moth): 24-well microtiter plate (MTP) with artificial diet was treated with test solutions at an application rate of 200 ppm (concentration in well 18 ppm) by pipetting. After drying, the MTPs were infested with L2 larvae (7-12 per well). After an incubation period of 6 days, samples were checked for larval mortality and growth regulation.

For another assay, the system named is Tetranychus urticae. Kind of assay: Tetranychus urticae (two-spotted spider mite) bean leaf disc test. The following applies: foliar, 192 h, 200 ppm sprayed on bean leaf discs, mixed ages, egg, larval and adult mortality 8 days later. The text has this:
Tetranychus urticae (Two-Spotted Spider Mite): Bean leaf discs on agar in 24-well microtiter plates were sprayed with test solutions at an application rate of 200 ppm. After drying, the leaf discs are infested with mite populations of mixed ages. 8 days later, discs are checked for egg mortality, larval mortality, and adult mortality.

For assay [2], the system named is Spodoptera littoralis. The experiment in a line: Spodoptera littoralis (Egyptian cotton leafworm) cotton leaf disc test. The following applies: foliar, 72 h, 200 ppm sprayed on cotton leaf discs, mortality, feeding behavior, growth regulation 3 days after treatment. The method, then: Spodoptera littoralis (Egyptian Cotton Leafworm): Cotton leaf discs were placed on agar in a 24-well microtiter plate and sprayed with test solutions at an application rate of 200 ppm. After drying, the leaf discs were infested with […]. The samples were checked for mortality, feeding behavior, and growth regulation 3 days after treatment (DAT).

The test system of a further assay is Thrips tabaci. Kind of assay: Thrips tabaci (onion thrips) sunflower leaf disc test. The following applies: foliar, 168 h, 200 ppm sprayed on sunflower leaf discs, mixed ages, mortality after 7 days. The method, then: Thrips tabaci (Onion Thrips): Sunflower leaf discs were placed on agar in a 24-well microtiter plate and sprayed with test solutions at an application rate of 200 ppm. After drying, the leaf discs were infested with a thrips population of mixed ages. After an incubation period of 7 days, samples were checked for mortality.

Setting [3] is: 12.5 ppm on cotton plants, 10 L3 larvae, mortality after 6 days incubation.
Setting [4] is: 48 h, 12.5 ppm on cotton plants, leaves excised 2 days after treatment, 10 L3 larvae, mortality after 6 days incubation, read-out: Control after 2 days/%.
The mark [5] stands for this setting: 384 h, 12.5 ppm on cotton plants, leaves excised 16 days after treatment, 10 L3 larvae, mortality after 6 days incubation, read-out: Control after 16 days/%.

Read-outs that look alike come from different tables or passages of the source.

Turning to `Cc1cc(C2=NSC(c3cc(Cl)cc(Cl)c3)(C(F)(F)F)C2)ccc1C(=O)NCC(=O)NCC(F)(F)F` (stereo not drawn) [Compound A01, 4-[5-(3,5-dichlorophenyl)-5-(trifluoromethyl)-4H-isothiazol-3-yl]-2-methyl-N-[2-oxo-2-(2,2,2-trifluoroethylamino)ethyl]benzamide], the “Control after 10 days/%” value in the assay with Spodoptera littoralis [1] (setting [3]) came to 60%. Besides, the pest or weed control at 12.5 ppm is 100% in the assay with Spodoptera littoralis [1] (setting [4]) and 10% in the assay with Spodoptera littoralis [1] (setting [5]). The pest or weed control at 200 ppm in the assay with Diabrotica balteata, in the assay on Heliothis virescens, in the assay on Plutella xylostella, in the assay with Tetranychus urticae, with Spodoptera littoralis [2] and with Thrips tabaci was at least 80% in each case.

Take `Cc1cc(C2=NSC(c3cc(Cl)cc(Cl)c3)(C(F)(F)F)C2)ccc1C(=O)NC1CS(=O)(=O)C1` (stereo not drawn) [Compound A02, 4-[5-(3,5-dichlorophenyl)-5-(trifluoromethyl)-4H-isothiazol-3-yl]-N-(1,1-dioxothietan-3-yl)-2-methyl-benzamide]: the “Control after 10 days/%” value in the assay on Spodoptera littoralis [1] (setting [3]) is recorded as 35%. The pest or weed control at 12.5 ppm in the assay on Spodoptera littoralis [1] (48 h, read-out: Control after 2 days/%) was found to be 100%; with Spodoptera littoralis [1] (384 h, read-out: Control after 16 days/%), 5%. Moreover, the pest or weed control at 200 ppm in the assay with Diabrotica balteata, with Heliothis virescens, in the assay with Plutella xylostella, with Tetranychus urticae, with Spodoptera littoralis [2] and with Thrips tabaci was at least 80% in each case.

With `Cc1cc(C2=NSC(c3cc(Cl)cc(Cl)c3)(C(F)(F)F)C2)ccc1C(=O)NC(C)c1ccccc1` (stereo not drawn) [Compound A12], the pest or weed control at 12.5 ppm in the assay on Spodoptera littoralis [1] (setting [4]) turned out to be 30%. The pest or weed control at 200 ppm with Diabrotica balteata, in the assay on Heliothis virescens, with Plutella xylostella, with Tetranychus urticae, in the assay with Spodoptera littoralis [2] and in the assay on Thrips tabaci was at least 80% each time.

As for `Cc1cc(C2=NSC(c3cc(Cl)cc(Cl)c3)(C(F)(F)F)C2)ccc1C(=O)NCc1ccccn1` (stereo not drawn) [Compound A16], the “Control after 10 days/%” value in the assay with Spodoptera littoralis [1] (setting [3]) was found to be 25%. In addition, the pest or weed control at 12.5 ppm in the assay with Spodoptera littoralis [1] (setting [4]) was 100%; with Spodoptera littoralis [1] (setting [5]) it was 10%. Besides, the pest or weed control at 200 ppm with Diabrotica balteata, with Heliothis virescens, with Plutella xylostella, with Tetranychus urticae, in the assay with Spodoptera littoralis [2] and in the assay with Thrips tabaci was at least 80% in each case.

Regarding `Cc1cc(C2=NSC(c3cc(Cl)cc(Cl)c3)(C(F)(F)F)C2)ccc1C(=O)NC1(C#N)CC1` (stereo not drawn) [Compound A45], the pest or weed control at 12.5 ppm in the assay with Spodoptera littoralis [1] (setting [4]) was determined as 75%; in the assay with Spodoptera littoralis [1] (setting [5]), 0%. Besides, the pest or weed control at 200 ppm in the assay on Diabrotica balteata, in the assay with Heliothis virescens, with Plutella xylostella, in the assay on Tetranychus urticae, with Spodoptera littoralis [2] and with Thrips tabaci was at least 80% each time.

For `Cc1cc(C2=NSC(c3cc(Cl)cc(Cl)c3)(C(F)(F)F)C2)ccc1C(=O)NCC(C)C` (stereo not drawn) [Compound A46], the pest or weed control at 12.5 ppm in the assay on Spodoptera littoralis [1] (setting [4]) came out at 40%; in the assay on Spodoptera littoralis [1] (setting [5]) it was 0%. In addition, the pest or weed control at 200 ppm in the assay on Diabrotica balteata, in the assay with Heliothis virescens, in the assay with Plutella xylostella, in the assay on Tetranychus urticae, in the assay with Spodoptera littoralis [2] and in the assay with Thrips tabaci was at least 80% in each case.

Consider `Cc1cc(C2=NSC(c3cc(Cl)cc(Cl)c3)(C(F)(F)F)C2)ccc1C(=O)NCC1CC1` (stereo not drawn) [Compound A53], for which the pest or weed control at 12.5 ppm with Spodoptera littoralis [1] (setting [4]) amounted to 85%; in the assay on Spodoptera littoralis [1] (setting [5]), 0%. Further, the pest or weed control at 200 ppm with Diabrotica balteata, in the assay with Heliothis virescens, in the assay with Plutella xylostella, in the assay with Tetranychus urticae, with Spodoptera littoralis [2] and with Thrips tabaci was at least 80% each time.

`Cc1cc(C2=NSC(c3cc(Cl)cc(Cl)c3)(C(F)(F)F)C2)ccc1C(=O)Nc1ccc(F)cc1` (stereo not drawn) [Compound A59]: the pest or weed control at 12.5 ppm was 100% with Spodoptera littoralis [1] (setting [4]) and 10% with Spodoptera littoralis [1] (setting [5]). The pest or weed control at 200 ppm with Diabrotica balteata, in the assay with Heliothis virescens, with Plutella xylostella, in the assay on Tetranychus urticae, in the assay with Spodoptera littoralis [2] and with Thrips tabaci was at least 80% throughout.

Take `CO/N=C/NC(=O)c1ccc(C2=NSC(c3cc(Cl)cc(Cl)c3)(C(F)(F)F)C2)cc1C` (stereo not drawn) [Compound C1, 4-[5-(3,5-dichlorophenyl)-5-(trifluoromethyl)-4H-isothiazol-3-yl]-N-[(E)-methoxyiminomethyl]-2-methyl-benzamide]: the pest or weed control at 12.5 ppm in the assay on Spodoptera littoralis [1] (setting [4]) came out at 100%; with Spodoptera littoralis [1] (setting [5]) it was 5%. In addition, the pest or weed control at 200 ppm with Diabrotica balteata, in the assay on Heliothis virescens, in the assay with Plutella xylostella, in the assay on Tetranychus urticae, in the assay on Spodoptera littoralis [2] and with Thrips tabaci was at least 80% throughout.

For `CO/N=C/NC(=O)c1ccc(C2=NSC(c3cc(Cl)cc(Cl)c3)(C(F)(F)F)C2)cc1Cl` (stereo not drawn) [Compound C3, 2-chloro-4-[5-(3,5-dichlorophenyl)-5-(trifluoromethyl)-4H-isothiazol-3-yl]-N-[(E)-methoxyiminomethyl]benzamide], the pest or weed control at 12.5 ppm was determined as 100% with Spodoptera littoralis [1] (setting [4]) and 0% in the assay on Spodoptera littoralis [1] (setting [5]). Further, the pest or weed control at 200 ppm with Diabrotica balteata, with Heliothis virescens, with Plutella xylostella, in the assay on Tetranychus urticae, with Spodoptera littoralis [2] and in the assay on Thrips tabaci was at least 80% in each case.

As for `Cc1cc(C2=NSC(c3cc(Cl)c(Cl)c(Cl)c3)(C(F)(F)F)C2)ccc1C(=O)NCC(=O)NCC(F)(F)F` (stereo not drawn) [Compound D1, 2-methyl-N-[2-oxo-2-(2,2,2-trifluoroethylamino)ethyl]-4-[5-(3,4,5-trichlorophenyl)-5-(trifluoromethyl)-4H-isothiazol-3-yl]benzamide], the figures for the pest or weed control at 12.5 ppm with Spodoptera littoralis [1] (setting [4]) and in the assay on Spodoptera littoralis [1] (setting [5]) were 100% and 10%, respectively. Further, the pest or weed control at 200 ppm with Diabrotica balteata, in the assay on Heliothis virescens, in the assay with Plutella xylostella, in the assay with Tetranychus urticae, in the assay on Spodoptera littoralis [2] and in the assay on Thrips tabaci was at least 80% in each case.

Source of the values: patent US9078444B2, “Isothiazoline derivatives as insecticidal compounds” (Syngenta Participations AG, priority 2011, dated 2015).
